Results published in patent EP0908457B1, “3-(1,2-benzisothiazol- and isoxazol-5-Y1)-2,4(1H,3H)-pyrimidinedione or thione and 3-(1,2-benzisothiazol- and isoxazol-5-y1)-4(3H)-pyrimidinone or thione herbicidal agents” (BASF AKTIENGESELLSCHAFT, priority 1997, dated 1999).

What was measured:
Cyperus iria = experiment: Preemergence weed control under flooded paddy conditions, CYPIR (Rice Flatsedge); type: in vivo; settings: flooded paddy; for CYPIR: preemergence weeds, herbicidal effect rating 0-9, three to four weeks after treatment; for herbicidal effect rating, CYPIR / CYPIR herbicidal effect rating: preemergence, rated three to four weeks after treatment; on herbicidal effect rating, CYPIR: meaning of each grade not given here
[1] = test system: Oryza sativa, (L.) Tebonnet; experiment: Rice tolerance to post-transplant applications under flooded paddy conditions (Example 187), ORYSAT (Rice, Tebonnet); settings: for ORYSAT: herbicidal effect rating 0-9, three to four weeks after treatment; for herbicidal effect rating ORYSAT / ORYSAT herbicidal effect rating: rated three to four weeks after treatment
Sagittaria pygmaea, L. = experiment: Preemergence weed control under flooded paddy conditions, SAGPY (Arrowhead (Pygmaea)); type: in vivo; settings: flooded paddy; for SAGPY: preemergence weeds, herbicidal effect rating 0-9, three to four weeks after treatment; for herbicidal effect rating, SAGPY / SAGPY herbicidal effect rating: preemergence, rated three to four weeks after treatment; on herbicidal effect rating, SAGPY: meaning of each grade not given here
[2] = test system: Cyperus serotinus, Rottb.; experiment: Preemergence weed control under flooded paddy conditions, CYPSE (Flatsedge); type: in vivo; settings: for CYPSE: preemergence weeds, herbicidal effect rating 0-9, three to four weeks after treatment; for herbicidal effect rating, CYPSE / CYPSE herbicidal effect rating: preemergence, rated three to four weeks after treatment; on herbicidal effect rating, CYPSE: meaning of each grade not given here
[3] = test system: Monochoria vaginalis, Presl.; experiment: Preemergence weed control under flooded paddy conditions, MOOVA (Monochoria); type: in vivo; settings: flooded paddy; for MOOVA: preemergence weeds, herbicidal effect rating 0-9, three to four weeks after treatment; for herbicidal effect rating, MOOVA / MOOVA herbicidal effect rating: preemergence, rated three to four weeks after treatment; on herbicidal effect rating, MOOVA: meaning of each grade not given here
[4] = test system: Echinochloa oryzoides (Ard.) Fritsch.; experiment: Preemergence weed control under flooded paddy conditions, ECHORC (Watergrass (Calif.)); type: in vivo; settings: flooded paddy; for ECHORC: preemergence weeds, herbicidal effect rating 0-9, three to four weeks after treatment; for herbicidal effect rating, ECHORC / ECHORC herbicidal effect rating: preemergence, rated three to four weeks after treatment; on herbicidal effect rating, ECHORC: meaning of each grade not given here

Cn1c(C(F)(F)F)cc(=O)n(-c2ccc3snc(/C=N/Nc4ccccc4)c3c2)c1=O [Example 408, 1,2-Benzisothiazole-3-carboxaldehyde, 5-[3,6-dihydro-3-methyl-2,6-dioxo-4-(trifluoromethyl)-1(2H)-pyrimidinyl]-, 3-(phenylhydrazone), (E)-]
CYPIR (Cyperus iria; 0.0320 kg/ha): 6.0
CYPIR (Cyperus iria; 0.0620 kg/ha): 9.0
CYPIR (Cyperus iria; 0.1250 kg/ha): 9.0
CYPIR (Cyperus iria; 0.2500 kg/ha): 9.0
ORYSAT ([1]; 0.0320 kg/ha): 0.0
ORYSAT ([1]; 0.0620 kg/ha): 2.0
ORYSAT ([1]; 0.1250 kg/ha): 2.0
ORYSAT ([1]; 0.2500 kg/ha): 3.0
SAGPY (Sagittaria pygmaea, L.; 0.0320 kg/ha): 0.0
SAGPY (Sagittaria pygmaea, L.; 0.0620 kg/ha): 0.0
SAGPY (Sagittaria pygmaea, L.; 0.1250 kg/ha): 4.0
SAGPY (Sagittaria pygmaea, L.; 0.2500 kg/ha): 6.0
CYPSE ([2]; 0.0320 kg/ha): 0.0
CYPSE ([2]; 0.0620 kg/ha): 0.0
CYPSE ([2]; 0.1250 kg/ha): 5.0
CYPSE ([2]; 0.2500 kg/ha): 6.0
MOOVA ([3]; 0.0320 kg/ha): 7.0
MOOVA ([3]; 0.0620 kg/ha): 9.0
MOOVA ([3]; 0.1250 kg/ha): 9.0
MOOVA ([3]; 0.2500 kg/ha): 9.0
ECHORC ([4]; 0.0320 kg/ha): 2.0
ECHORC ([4]; 0.0620 kg/ha): 3.0
ECHORC ([4]; 0.1250 kg/ha): 6.0
ECHORC ([4]; 0.2500 kg/ha): 7.0

COc1ccccc1C=C(C#N)c1nsc2ccc(-n3c(=O)cc(C(F)(F)F)n(C)c3=O)cc12 [Example 599, 1,2-Benzisothiazole-3-acetonitrile, 5-[3,6-dihydro-3-methyl-2,6-dioxo-4-(trifluoromethyl)-1(2H)-pyrimidinyl]-alpha-(o-methoxybenzylidene)-]
herbicidal effect rating, CYPIR (Cyperus iria; Rate 0.0320 kg/ha): 0.0
herbicidal effect rating, CYPIR (Cyperus iria; Rate 0.0620 kg/ha): 0.0
herbicidal effect rating, CYPIR (Cyperus iria; Rate 0.2500 kg/ha): 3.0
herbicidal effect rating ORYSAT ([1]; Rate 0.0320 kg/ha): 2.0
herbicidal effect rating ORYSAT ([1]; Rate 0.0620 kg/ha): 3.0
herbicidal effect rating ORYSAT ([1]; Rate 0.1250 kg/ha): 3.0
herbicidal effect rating ORYSAT ([1]; Rate 0.2500 kg/ha): 5.0
herbicidal effect rating, SAGPY (Sagittaria pygmaea, L.; Rate 0.0320 kg/ha): 0.0
herbicidal effect rating, SAGPY (Sagittaria pygmaea, L.; Rate 0.0620 kg/ha): 0.0
herbicidal effect rating, SAGPY (Sagittaria pygmaea, L.; Rate 0.1250 kg/ha): 0.0
herbicidal effect rating, SAGPY (Sagittaria pygmaea, L.; Rate 0.2500 kg/ha): 0.0
herbicidal effect rating, CYPSE ([2]; Rate 0.0620 kg/ha): 0.0
herbicidal effect rating, CYPSE ([2]; Rate 0.2500 kg/ha): 0.0
herbicidal effect rating, MOOVA ([3]; Rate 0.0320 kg/ha): 6.0
herbicidal effect rating, MOOVA ([3]; Rate 0.0620 kg/ha): 7.0
herbicidal effect rating, MOOVA ([3]; Rate 0.2500 kg/ha): 7.0
herbicidal effect rating, ECHORC ([4]; Rate 0.0320 kg/ha): 0.0
herbicidal effect rating, ECHORC ([4]; Rate 0.0620 kg/ha): 0.0
herbicidal effect rating, ECHORC ([4]; Rate 0.1250 kg/ha): 0.0
herbicidal effect rating, ECHORC ([4]; Rate 0.2500 kg/ha): 4.0

COC(=O)C(C)Oc1ccc(-c2nsc3ccc(-n4c(=O)cc(C(F)(F)F)n(C)c4=O)cc23)cc1 (stereo not shown) [Example 258, Propionic acid, 2-{p-{5-[3,6-dihydro-3-methyl-2,6-dioxo-4-(trifluoromethyl)-1(2H)-pyrimidinyl]-1,2-benzisothiazol-3-yl}phenoxy}-, methyl ester]
CYPIR herbicidal effect rating (Cyperus iria; Rate 0.0320 kg/ha): 0.0
CYPIR herbicidal effect rating (Cyperus iria; Rate 0.0620 kg/ha): 2.0
CYPIR herbicidal effect rating (Cyperus iria; Rate 0.1250 kg/ha): 7.0
CYPIR herbicidal effect rating (Cyperus iria; Rate 0.2500 kg/ha): 8.0
ORYSAT herbicidal effect rating ([1]; Rate 0.0320 kg/ha): 2.0
ORYSAT herbicidal effect rating ([1]; Rate 0.0620 kg/ha): 2.0
ORYSAT herbicidal effect rating ([1]; Rate 0.1250 kg/ha): 3.0
ORYSAT herbicidal effect rating ([1]; Rate 0.2500 kg/ha): 4.0
SAGPY herbicidal effect rating (Sagittaria pygmaea, L.; Rate 0.0320 kg/ha): 0.0
SAGPY herbicidal effect rating (Sagittaria pygmaea, L.; Rate 0.0620 kg/ha): 0.0
SAGPY herbicidal effect rating (Sagittaria pygmaea, L.; Rate 0.1250 kg/ha): 0.0
SAGPY herbicidal effect rating (Sagittaria pygmaea, L.; Rate 0.2500 kg/ha): 0.0
CYPSE herbicidal effect rating ([2]; Rate 0.0320 kg/ha): 0.0
CYPSE herbicidal effect rating ([2]; Rate 0.0620 kg/ha): 0.0
CYPSE herbicidal effect rating ([2]; Rate 0.1250 kg/ha): 0.0
MOOVA herbicidal effect rating ([3]; Rate 0.0320 kg/ha): 9.0
MOOVA herbicidal effect rating ([3]; Rate 0.0620 kg/ha): 9.0
MOOVA herbicidal effect rating ([3]; Rate 0.1250 kg/ha): 9.0
MOOVA herbicidal effect rating ([3]; Rate 0.2500 kg/ha): 9.0
ECHORC herbicidal effect rating ([4]; Rate 0.0320 kg/ha): 0.0
ECHORC herbicidal effect rating ([4]; Rate 0.0620 kg/ha): 0.0
ECHORC herbicidal effect rating ([4]; Rate 0.1250 kg/ha): 0.0
ECHORC herbicidal effect rating ([4]; Rate 0.2500 kg/ha): 0.0
